Measured values from paper PMC5055185, “Dual pharmacological inhibition of glutathione and thioredoxin systems synergizes to kill colorectal carcinoma stem cells” (Cancer Medicine, 2016).
Where “and” joins values, the source holds several entries; their conditions need not be identical. Equal entries are not always repeated. Entries after “also recorded” stand apart in the source; their conditions may differ.

Tests used:
Format in all cases: cell-based, human
[1] = system: DF adult dermal fibroblasts; test: cell survival (trypan blue exclusion, 5 days), DF; conditions: for IC50: cellular survival, 5 days
Experimental: Modified procedures of CTOS culture 16 were described elsewhere 10. […] The culture medium was serum‐free advanced DMEM/F‐12 (GIBCO, Waltham, MA) supplemented with FGF‐2 (10 ng/mL, ReproCell, Yokohama, Japan), penicillin ([…], Wako, Osaka, Japan), streptomycin (0.1 mg/mL,Wako), gentamicin (50 μg/mL, Wako), and fungizone (0.25 μg/mL, GIBCO). DLD‐1 and HCT116 CRC cell lines were purchased from JCRB Cell Bank (Osaka, Japan) and RIKEN BioResource Center (Ibaraki, Japan), respectively. In order to estimate pharmacological side effects against normal tissues, human diploid fibroblasts were purchased (JCRB Cell Bank) as model cells. The origins of the fibroblasts were as follows: OUMS‐36 (embryo), TIG‐3 (fetal lung), TIG‐111 (dermal fibroblasts [DFs] from individual), TIG‐119 (DFs from individual), and TIG‐102 (DFs from individual). Adult DFs were purchased from Kurabo (Osaka, Japan). CRC cell lines and fibroblasts were maintained under supplier‐recommended culture conditions. Since the culture conditions are different between fibroblasts and CTOSs, we need to be cautious about the interpretation of data (i.e., lateral comparison between them). […] Colorectal CTOSs display augmented survival through maintaining epithelial structure with E‐cadherin 16. On the other hand, the establishment of conventional cell lines (adherent culture) are much less efficient because constant cell division and autonomous survival are required for the procedure. When we choose CTOSs instead of cancer cell lines, we lose the equivalent condition (adherent culture) as a trade‐off.
Each drug's half‐maximal inhibitory concentration (IC50) was calculated based on live cell number ratios (drug treated/untreated × 100%) obtained from serial dilution of drug concentration. The length of drug exposure was 5 days. Each number of live cells was counted automatically by trypan blue exclusion (LUNA automated cell counter, Logos Biosystems, Anyang, South Korea). Cancer spheroids were dispersed with serial treatments (20 min each) of TrypLE™ and Accumax™. Thus, IC50 was determined based on cellular survival, but not on proliferation. We chose the survival index instead of the speed of growth because CTOSs in vitro show very slow proliferation (quiescence), which is one of the hallmarks of CSCs 2. The IC50 values of fibroblasts were accordingly determined based on cellular survival index during quiescence (by contact inhibition). […] To quantify the synergism of two distinct drugs, Combination Index (CI) was calculated 21. A CI value of about 1 (0.90–1.10) was defined as nearly additive and CI values more than (>1.10) and less than (<0.90) were defined as antagonism and synergism, respectively. IC50 and CI were determined using CompuSyn software (ComboSyn, Paramus, NK).

DLD‐1 CRC cell line = test: intracellular ROS, CellROX Deep Red flow cytometry, DLD-1; conditions: treated 1 h (menadione 100 μmol/L, 30 min)
Experimental: In order to estimate the effect of each inhibitor described above, intracellular reactive oxygen species (ROS) were measured using CellROX™ Deep Red reagent (Molecular Probes). Briefly, cells were seeded on 6‐well plates at 1 × 10^6 cells per well. After cells reached 90% confluence, cells were treated with designated reagents for 1 h. CellROX™ Deep Red reagent was added at a final concentration of 5 μmol/L to the culture medium and then incubated for 30 min at 37°C. Subsequently, the medium was removed and the cells were washed with PBS and detached using 0.25% trypsin‐EDTA. The resulting fluorescence was measured using a FACS Calibur flow cytometer (Becton Dickinson, Franklin Lakes, NJ). Menadione (100 μmol/L) was added 30 min before CellROX™ Deep Red reagent treatment as a reference ROS inducer. […] CD44v9 positivity of CTOS cells was analyzed as follows: Cancer spheroids were dispersed with serial treatments of TrypLE™ (20 min, GIBCO) and Accumax™ (10 min, Innovative Cell Technologies, San Diego, CA). Cell surface CD44v9 was stained with CD44v9 antibody (Cosmobio) as well as PE‐conjugated anti‐rat IgG2a (Becton Dickinson). The fluorescence was measured using a FACS Calibur flow cytometer (Becton Dickinson). […]
One hour after each drug treatment, cells were stained with CellROX DeepRed and intracellular ROS were quantified with FACS. […]

[2] = system: OUMS‐36 embryonic fibroblasts; test: intracellular ROS, CellROX Deep Red flow cytometry, OUMS-36; conditions: treated 1 h (menadione 100 μmol/L, 30 min)
Experimental: (§1) In order to estimate the effect of each inhibitor described above, intracellular reactive oxygen species (ROS) were measured using CellROX™ Deep Red reagent (Molecular Probes). Briefly, cells were seeded on 6‐well plates at 1 × 10^6 cells per well. After cells reached 90% confluence, cells were treated with designated reagents for 1 h. CellROX™ Deep Red reagent was added at a final concentration of 5 μmol/L to the culture medium and then incubated for 30 min at 37°C. Subsequently, the medium was removed and the cells were washed with PBS and detached using 0.25% trypsin‐EDTA. The resulting fluorescence was measured using a FACS Calibur flow cytometer (Becton Dickinson, Franklin Lakes, NJ). Menadione (100 μmol/L) was added 30 min before CellROX™ Deep Red reagent treatment as a reference ROS inducer. […] CD44v9 positivity of CTOS cells was analyzed as follows: Cancer spheroids were dispersed with serial treatments of TrypLE™ (20 min, GIBCO) and Accumax™ (10 min, Innovative Cell Technologies, San Diego, CA). Cell surface CD44v9 was stained with CD44v9 antibody (Cosmobio) as well as PE‐conjugated anti‐rat IgG2a (Becton Dickinson). The fluorescence was measured using a FACS Calibur flow cytometer (Becton Dickinson). Since CTOSs contained abundant auto‐fluorescent cells, we defined FL2^+FL1^− cells as authentic PE‐positive (Fig. S4). Thus, CD44v9‐positive rate was defined as FL2^+FL1^−/total live cells and CD44v9‐positive fraction was further gated and split between CD44v9^low and CD44v9^high (Fig. S4), to calculate the mean fluorescent intensity of CD44v9^high fraction.
(§2) One hour after each drug treatment, cells were stained with CellROX DeepRed and intracellular ROS were quantified with FACS. Upper: histogram of fluorescent signal is represented. Lower. representative mean fluorescent intensity scores are shown. Note that without drug treatment (Control), intracellular ROS is higher in OUMS36 and TIG3 (embryonic fibroblasts) but lower in DLD-1 and HCT116 (CRC cell lines). ROS in DLD-1 was increased by auranofin. ROS in HCT116 was increased by all the inhibitors tested. […]

[3] = system: TIG‐3 embryonic fibroblasts; test: intracellular ROS, CellROX Deep Red flow cytometry, TIG-3; conditions: treated 1 h (menadione 100 μmol/L, 30 min)
Experimental: as §1, §2

SMILES | Ratio of survived cells (Drugs treated/Untreated), Average ([1]; Aura 1 microM) | Ratio of survived cells (Drugs treated/Untreated), Average ([1]; Aura 2 microM) | Ratio of survived cells (Drugs treated/Untreated), single passage points # ([1]; Aura 2 microM) | Ratio of survived cells (Drugs treated/Untreated), Average ([1]; Aura 4 microM) | Ratio of survived cells (Drugs treated/Untreated), single passage points # ([1]; Aura 4 microM) | IC50 [1] | intracellular ROS response (DLD‐1 CRC cell line) | Ratio of survived cells (Drugs treated/Untreated), Average ([1]; Pipe 2.5 microM) | Ratio of survived cells (Drugs treated/Untreated), Average ([1]; Pipe 5 microM) | Ratio of survived cells (Drugs treated/Untreated), single passage points # ([1]; Pipe 5 microM) | Ratio of survived cells (Drugs treated/Untreated), Average ([1]; Pipe 10 microM) | intracellular ROS response [2] | intracellular ROS response [3]
CC[PH](CC)(CC)[Au][S][C@@H]1O[C@H](COC(C)=O)[C@@H](OC(C)=O)[C@H](OC(C)=O)[C@H]1OC(C)=O [Aura, Auranofin] | 88.25% | 33% | 38% and 32% and 36% and 26% | 0% | 0% | 1.59 µM | increased; also recorded: increase of ROS | – | – | – | – | – | –
COc1cc(/C=C/C(=O)N2CCC=CC2=O)cc(OC)c1OC [Pipe, Piperlongumine] | – | – | – | – | – | 6.3 µM | – | 94.8333% | 80.3333% | 81% and 80% and 83% and 109% and 67% and 62% | 12.5% | no ROS increase | no ROS increase
